The subject of test [1] is SNU-475. Description: Induction of apoptosis in human SNU-475 cells assessed as cleaved PARP level at 0.5 uM incubated for 24 hrs by Western blotting analysis. It counts as functional, cell-based. On the technique in general: In western blotting, separated proteins are transferred to a membrane and probed.
Test [2] can be described thus: Inhibition of PI3K/Akt/mTOR signaling pathway in human Hep3B cells assessed as reduction in phosphorylation of GSK3 alpha/beta incubated for 1 hr under normoxia condition by Western blotting analysis. To be noted: dose 0.25-1 µM. It counts as cell-based.
Test [3] relates to Mahlavu. As to the kind of experiment: Induction of apoptosis in human Mahlavu cells assessed as viable cells at IC50 incubated for 24 hrs in presence of Z-VAD-fmk by Annexin-V/7-AAD staining based muse cell analyzer method (reference value: 90.52 %). It counts as functional.
Test [4] deals with Mahlavu. As to the kind of experiment: Cytotoxicity against human Mahlavu cells assessed as reduction in cell viability at 0.5 uM incubated for 24 hrs in presence of 3-Methyladenine under hypoxia condition by MTT assay. It counts as functional, cell-based.
Test [5] is described as follows: Inhibition of PI3K/Akt/mTOR signaling pathway in human Mahlavu cells assessed as reduction in phosphorylation of mTORC1 substrate S6 incubated for 1 hr under normoxia condition by Western blotting analysis. It counts as cell-based. As to conditions: dose 0.25-1 µM.
Test [6] deals with SNU-449. Description: Cytotoxicity against human SNU-449 cells assessed as reduction in cell viability at 0.5 to 5 uM incubated for 24 hrs by MTT assay. It is filed as functional, cell-based. As to conditions: dose 0.5-5 µM. Background: Tetrazolium assays rely on reduction of a dye to a coloured formazan, in cell work by metabolically active cells.
Test [7] deals with Mahlavu. Description: Induction of apoptosis in human Mahlavu cells assessed as necrotic cells at 0.66 uM incubated for 24 hrs by Annexin-V/7-AAD staining based muse cell analyzer method (reference value: 0.67 %). It is filed as functional.
Test [8] has as its system SNU-449. As to the kind of experiment: Induction of apoptosis in human SNU-449 cells assessed as viable cells at 1.5 uM incubated for 24 hrs by Annexin-V/7-AAD staining based muse cell analyzer method (reference value: 90.07 %). To be noted: read-out: Activity. It counts as functional.
Test [9] in a line: Inhibition of PI3K/Akt/mTOR signaling pathway in human SNU-475 cells assessed as reduction in phosphorylation of Akt at 1 to 10 nM incubated for 1 hr under hypoxia condition by Western blotting analysis. As to conditions: dose 1-10 nM. It is filed as cell-based.
In test [10] the test system is Mahlavu. Description: Induction of autophagy in human Mahlavu cells assessed as upregulation of LC3A/B II level by Western blot analysis. As to conditions: dose 0.1-0.5 µM. It is filed as functional, cell-based.

Activity calls are given as the source filed them. No cut-off for these calls is given here.

For the molecule `COc1ccc(-c2ccc3ncc4c(c3c2)n(-c2ccc(N3CCNCC3)c(C(F)(F)F)c2)c(=O)n4C)cn1` [BGT-226 FREE BASE], the result in [1], in test [4] and in [6] was Active. The inhibition entry in test [2] and in [5] was “Dose-Dependent Effect” in each case. For the same molecule, the Activity in test [3] was 81.63%; in test [7] it was 0%; in test [10], “Dose-Dependent Effect”. In addition, in test [8], the viability at 1.5 µM was found to be 48.6%. In addition, the inhibition entry in test [9] is “Active”.

Source of the values: ChEMBL document CHEMBL5647692, “The novel dual PI3K/mTOR inhibitor NVP-BGT226 displays cytotoxic activity in both normoxic and hypoxic hepatocarcinoma cells” (Oncotarget, 2015).
